Data set [1] concerns T cells. Nature of the data set: ^13C delta in CO2 in spleen T cells after ^13C-palmitate tracer load, acute graft-versus-host disease model. The class given is in vivo, mouse. The method, then: To investigate metabolic adaptations that occur in response to allo-activation, host strain animals (female B6D2F1 mice, H-2b/d) were injected with 50-75 million spleen cells from donor strain animals (female B6.SJL mice, H-2b). The miss-match between the strains major histocompatibility antigens (e.g., H-2b/d versus H-2b) causes T cell activation of donor T cells in vivo and results in a mouse model of acute graft versus host disease. Eight days after injection, transplanted mice along with control non-transplanted animals from the host and donor strains received with U-^13C(6)-glutamine (Sigma#60516, 1.0 g/kg I.P.) or U-^13C(5)-glucose (Sigma#660663, 1.0 g/kg I.P.) or potassium U-^13C(16)-palmitate (Sigma#687871, 1.0 g/kg, gastric gavage). Treatment groups of four mice each were euthanized 60 minutes after the glutamine or glucose tracer loads or 180 minutes after palmitate tracer load by over exposure to carbon dioxide. Terminal blood samples were collected by cardiac puncture, plasma prepared after blood was mixed with heparin and frozen at −80° C. Spleens were removed and processed to isolate T cells as separate fractions derived from either the donor or host strains of mice. Samples were stored on dry ice overnight and then stored at −80° C. until analyzed using GC/MS-based mass isotopomer analysis.

For data set [2], the system named is T cells. The data set can be described thus: Molar percent enrichment of [4,5-^13C2]-L-glutamate in spleen T cells after ^13C-palmitate tracer load. The class given is in vivo, mouse. The text has this: The molar percent enrichment of [4,5-^13C2]-L-glutamate is the amount of [4,5-^13C2]-L-glutamate in a sample divided by the total amount of all ^13C-labeled glutamate isotopomers in the sample.

Data set [3] is described as follows: Plasma metabolite profile after ^13C-glutamine tracer load in mouse model of acute graft-versus-host disease. The class given is in vivo. The conditions noted are these: for circulating total glutamine concentration in plasma, change: grafted host (allo-transplanted) mice compared to control donor and control host mice.
Protocol: To investigate metabolic adaptations that occur in response to allo-activation, host strain animals (female B6D2F1 mice, H-2b/d) were injected with 50-75 million spleen cells from donor strain animals (female B6.SJL mice, H-2b). […] Eight days after injection, transplanted mice along with control non-transplanted animals from the host and donor strains received with U-^13C(6)-glutamine (Sigma#60516, 1.0 g/kg I.P.) or U-^13C(5)-glucose (Sigma#660663, 1.0 g/kg I.P.) or potassium U-^13C(16)-palmitate (Sigma#687871, 1.0 g/kg, gastric gavage). Treatment groups of four mice each were euthanized 60 minutes after the glutamine or glucose tracer loads or 180 minutes after palmitate tracer load by over exposure to carbon dioxide. Terminal blood samples were collected by cardiac puncture, plasma prepared after blood was mixed with heparin and frozen at −80° C. Spleens were removed and processed to isolate T cells as separate fractions derived from either the donor or host strains of mice. Samples were stored on dry ice overnight and then stored at −80° C. until analyzed using GC/MS-based mass isotopomer analysis.

With `[13CH3][13CH2][13CH2][13CH2][13CH2][13CH2][13CH2][13CH2][13CH2][13CH2][13CH2][13CH2][13CH2][13CH2][13CH2][13C](=O)[O-].[K+]` [uniformly labeled ^13C-palmitate, potassium U-^13C(16)-palmitate], the “^13C delta in CO2” value in data set [1] (allo-activated donor type T cells versus control naive donor type T cells, FIG. 4B) is recorded as “higher”; in data set [1] (host T cells from allo-transplanted mouse versus host-type T cells from healthy host control, FIG. 5B) it was “no statistically significant difference”. Besides, the “molar percent enrichment of [4,5-^13C2]-L-glutamate” value in data set [2] (allo-activated donor T cells versus control naive T cells, FIG. 6) is “over six times greater”; in data set [2] (host T cells from allo-transplanted mouse versus T cells from healthy host control, FIG. 7), “no statistically significant difference”.
In the case of `NC(=O)CCC(N)C(=O)O` [[U-^13C5]-L-glutamine], the figures for the “circulating total glutamine concentration in plasma, change” value in data set [3] and in data set [3] (listed as glutamine) were “more than two-fold drop” and “reduction”, respectively. Further, in data set [3] (grafted host animals, plasma, one hour after glutamine tracer load), the “share of ^13C-labeled glutamine fraction still uniformly ^13C-labeled” value worked out at 83.4%.

These data come from patent US20150031068A1, “METHODS AND COMPOSITIONS FOR DETECTING IMMUNE SYSTEM ACTIVATION” (Lycera Corporation, priority 2012, published 2015).
